Assay [1] addresses T1, Cytoplasmic tyrosine-protein kinase BMX (Homo sapiens) (UniProt P51813).
T1 sequence (whole entry): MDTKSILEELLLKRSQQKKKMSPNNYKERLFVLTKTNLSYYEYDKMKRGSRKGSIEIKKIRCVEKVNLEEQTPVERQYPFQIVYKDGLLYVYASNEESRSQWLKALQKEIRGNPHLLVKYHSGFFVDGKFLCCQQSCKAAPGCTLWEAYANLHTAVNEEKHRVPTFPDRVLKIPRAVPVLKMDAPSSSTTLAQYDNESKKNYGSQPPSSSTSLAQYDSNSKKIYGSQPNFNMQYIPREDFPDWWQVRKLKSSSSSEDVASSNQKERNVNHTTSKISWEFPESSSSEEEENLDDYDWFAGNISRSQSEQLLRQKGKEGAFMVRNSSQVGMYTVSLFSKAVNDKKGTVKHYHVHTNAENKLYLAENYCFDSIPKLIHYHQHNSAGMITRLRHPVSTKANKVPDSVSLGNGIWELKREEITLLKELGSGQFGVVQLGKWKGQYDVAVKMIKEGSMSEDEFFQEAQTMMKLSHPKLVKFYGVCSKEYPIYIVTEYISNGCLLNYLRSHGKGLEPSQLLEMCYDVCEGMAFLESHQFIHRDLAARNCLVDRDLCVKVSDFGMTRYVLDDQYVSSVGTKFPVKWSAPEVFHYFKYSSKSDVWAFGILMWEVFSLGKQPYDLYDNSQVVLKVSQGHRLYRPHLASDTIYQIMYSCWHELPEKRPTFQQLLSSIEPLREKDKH
Put plainly: Inhibition of human recombinant BMX at 15 nM related to control ULK1.

The target of assay [2] is Receptor tyrosine-protein kinase erbB-4 (Homo sapiens) (UniProt Q15303). Put plainly: Inhibition of human recombinant ErbB4 at 15 nM in presence of ATP by radiometric assay relative to control.
Receptor tyrosine-protein kinase erbB-4 (Homo sapiens), sequence (Q15303 whole entry): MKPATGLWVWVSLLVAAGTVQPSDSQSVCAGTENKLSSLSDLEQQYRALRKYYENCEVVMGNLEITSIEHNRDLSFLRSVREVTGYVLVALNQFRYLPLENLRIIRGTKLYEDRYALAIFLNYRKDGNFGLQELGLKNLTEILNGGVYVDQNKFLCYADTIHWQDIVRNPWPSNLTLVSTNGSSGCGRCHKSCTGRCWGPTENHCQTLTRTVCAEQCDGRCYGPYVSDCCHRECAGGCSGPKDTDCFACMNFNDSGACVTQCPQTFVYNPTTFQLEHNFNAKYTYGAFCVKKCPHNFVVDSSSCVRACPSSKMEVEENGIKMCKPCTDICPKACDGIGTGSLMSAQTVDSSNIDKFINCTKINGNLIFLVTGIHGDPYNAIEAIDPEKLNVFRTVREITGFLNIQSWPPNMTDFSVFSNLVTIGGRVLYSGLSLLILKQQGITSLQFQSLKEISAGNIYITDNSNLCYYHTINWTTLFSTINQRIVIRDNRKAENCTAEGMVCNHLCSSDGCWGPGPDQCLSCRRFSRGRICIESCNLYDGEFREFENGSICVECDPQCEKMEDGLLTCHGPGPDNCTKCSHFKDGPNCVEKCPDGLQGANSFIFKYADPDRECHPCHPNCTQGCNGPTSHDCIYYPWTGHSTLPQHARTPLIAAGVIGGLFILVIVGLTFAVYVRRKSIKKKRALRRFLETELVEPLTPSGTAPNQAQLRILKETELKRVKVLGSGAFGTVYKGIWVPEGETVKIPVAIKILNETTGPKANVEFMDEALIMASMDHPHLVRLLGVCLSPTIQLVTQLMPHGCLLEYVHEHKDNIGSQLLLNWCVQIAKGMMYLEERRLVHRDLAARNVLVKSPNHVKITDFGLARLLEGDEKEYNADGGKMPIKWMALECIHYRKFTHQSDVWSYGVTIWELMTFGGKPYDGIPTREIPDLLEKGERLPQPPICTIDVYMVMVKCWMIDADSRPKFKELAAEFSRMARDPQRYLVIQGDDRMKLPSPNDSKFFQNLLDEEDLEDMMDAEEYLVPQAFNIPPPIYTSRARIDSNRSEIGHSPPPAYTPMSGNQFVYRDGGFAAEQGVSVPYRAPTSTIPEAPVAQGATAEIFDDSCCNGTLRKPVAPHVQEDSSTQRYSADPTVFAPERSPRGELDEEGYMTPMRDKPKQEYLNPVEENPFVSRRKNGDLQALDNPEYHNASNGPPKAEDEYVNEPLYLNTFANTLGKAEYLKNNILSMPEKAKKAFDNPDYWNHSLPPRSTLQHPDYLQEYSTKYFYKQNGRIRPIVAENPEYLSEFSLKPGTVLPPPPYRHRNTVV
Assay [3] addresses Serine/threonine-protein kinase SIK1 (Homo sapiens) (UniProt P57059). Put plainly: Inhibition of human recombinant SIK at 15 nM related to control ULK1.
The target in assay [4] is T2, cGMP-dependent protein kinase 1 (Homo sapiens) (UniProt Q13976).
T2 sequence (whole entry): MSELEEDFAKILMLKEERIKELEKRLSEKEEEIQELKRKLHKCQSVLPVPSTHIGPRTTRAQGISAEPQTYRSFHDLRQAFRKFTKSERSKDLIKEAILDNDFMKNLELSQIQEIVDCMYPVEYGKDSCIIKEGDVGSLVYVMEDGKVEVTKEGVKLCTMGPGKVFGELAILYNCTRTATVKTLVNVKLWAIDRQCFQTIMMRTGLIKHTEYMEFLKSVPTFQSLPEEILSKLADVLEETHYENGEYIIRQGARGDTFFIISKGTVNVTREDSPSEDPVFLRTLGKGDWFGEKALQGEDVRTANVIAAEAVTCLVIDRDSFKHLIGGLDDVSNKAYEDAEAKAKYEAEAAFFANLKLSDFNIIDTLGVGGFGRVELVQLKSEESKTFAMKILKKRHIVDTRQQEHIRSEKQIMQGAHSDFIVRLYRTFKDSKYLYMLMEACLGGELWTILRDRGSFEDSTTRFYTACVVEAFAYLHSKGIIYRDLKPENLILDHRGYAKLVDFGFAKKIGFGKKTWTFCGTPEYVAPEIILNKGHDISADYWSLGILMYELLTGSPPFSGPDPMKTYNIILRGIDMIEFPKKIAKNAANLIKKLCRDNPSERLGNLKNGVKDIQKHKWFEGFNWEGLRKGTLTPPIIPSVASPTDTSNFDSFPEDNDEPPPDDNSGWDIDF
Kind of assay: Inhibition of human recombinant PKG1 at 40 nM in presence of ATP by radiometric assay relative to control.

Assay [5] concerns the target MAP kinase-activated protein kinase 2 (Homo sapiens) (UniProt P49137). Kind of assay: Inhibition of human recombinant MAPKAPK2 at 500 nM related to control ULK1.
In assay [6] the target is T3, Tyrosine-protein kinase receptor TYRO3 (Homo sapiens) (UniProt Q06418).
T3 sequence (whole entry): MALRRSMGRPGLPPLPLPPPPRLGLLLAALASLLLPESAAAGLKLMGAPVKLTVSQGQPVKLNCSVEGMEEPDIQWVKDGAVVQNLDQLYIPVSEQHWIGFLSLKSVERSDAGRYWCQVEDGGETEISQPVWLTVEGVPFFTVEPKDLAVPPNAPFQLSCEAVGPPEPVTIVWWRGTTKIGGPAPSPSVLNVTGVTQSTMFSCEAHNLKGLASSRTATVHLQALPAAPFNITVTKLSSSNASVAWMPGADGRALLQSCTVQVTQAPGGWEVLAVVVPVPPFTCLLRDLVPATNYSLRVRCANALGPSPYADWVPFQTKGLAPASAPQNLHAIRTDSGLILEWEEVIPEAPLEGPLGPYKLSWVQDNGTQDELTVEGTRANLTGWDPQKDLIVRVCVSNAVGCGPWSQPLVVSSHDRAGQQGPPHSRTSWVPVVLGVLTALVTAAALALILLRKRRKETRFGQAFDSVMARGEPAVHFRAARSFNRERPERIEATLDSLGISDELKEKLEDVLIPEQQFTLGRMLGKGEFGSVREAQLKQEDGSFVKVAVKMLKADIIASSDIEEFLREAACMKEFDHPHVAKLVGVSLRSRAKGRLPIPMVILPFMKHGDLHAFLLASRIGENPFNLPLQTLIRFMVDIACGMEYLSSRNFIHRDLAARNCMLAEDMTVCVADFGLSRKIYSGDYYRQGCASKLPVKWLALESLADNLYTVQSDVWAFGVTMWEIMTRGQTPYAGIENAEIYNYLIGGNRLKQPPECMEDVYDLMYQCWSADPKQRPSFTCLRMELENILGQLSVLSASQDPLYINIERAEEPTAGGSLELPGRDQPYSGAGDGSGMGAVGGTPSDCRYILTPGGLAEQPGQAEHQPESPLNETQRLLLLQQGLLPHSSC
Kind of assay: Inhibition of human recombinant TYRO3 at 500 nM in presence of ATP by radiometric assay relative to control.

The target in assay [7] is Cyclin-dependent kinase 6 (Homo sapiens) (UniProt Q00534). Put plainly: Inhibition of human recombinant CDK6 at 500 nM related to control ULK1.
Cyclin-dependent kinase 6 (Homo sapiens), sequence (Q00534 whole entry): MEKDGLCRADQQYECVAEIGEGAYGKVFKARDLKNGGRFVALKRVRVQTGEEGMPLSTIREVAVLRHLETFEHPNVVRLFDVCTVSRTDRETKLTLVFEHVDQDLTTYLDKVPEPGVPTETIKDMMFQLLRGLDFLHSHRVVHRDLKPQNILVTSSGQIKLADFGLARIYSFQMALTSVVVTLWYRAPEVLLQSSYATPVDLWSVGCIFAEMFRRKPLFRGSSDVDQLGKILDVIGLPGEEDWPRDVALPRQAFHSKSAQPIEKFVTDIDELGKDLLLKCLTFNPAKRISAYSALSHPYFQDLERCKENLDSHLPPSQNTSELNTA

As usually defined, the inhibition is the share of the control response that was lost under treatment.

MAP kinase-activated protein kinase 2 (Homo sapiens), sequence (P49137 whole entry, looked up): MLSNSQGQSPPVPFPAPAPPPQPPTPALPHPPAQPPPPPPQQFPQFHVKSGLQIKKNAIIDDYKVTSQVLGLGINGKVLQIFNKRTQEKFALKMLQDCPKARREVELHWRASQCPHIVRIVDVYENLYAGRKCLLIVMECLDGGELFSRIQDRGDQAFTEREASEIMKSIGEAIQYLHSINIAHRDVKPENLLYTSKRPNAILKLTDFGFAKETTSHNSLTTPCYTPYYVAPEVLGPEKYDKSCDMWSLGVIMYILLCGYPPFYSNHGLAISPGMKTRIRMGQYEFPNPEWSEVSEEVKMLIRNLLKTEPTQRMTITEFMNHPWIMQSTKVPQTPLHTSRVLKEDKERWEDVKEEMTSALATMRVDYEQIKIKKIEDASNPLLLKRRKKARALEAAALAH
Serine/threonine-protein kinase SIK1 (Homo sapiens), sequence (P57059 whole entry): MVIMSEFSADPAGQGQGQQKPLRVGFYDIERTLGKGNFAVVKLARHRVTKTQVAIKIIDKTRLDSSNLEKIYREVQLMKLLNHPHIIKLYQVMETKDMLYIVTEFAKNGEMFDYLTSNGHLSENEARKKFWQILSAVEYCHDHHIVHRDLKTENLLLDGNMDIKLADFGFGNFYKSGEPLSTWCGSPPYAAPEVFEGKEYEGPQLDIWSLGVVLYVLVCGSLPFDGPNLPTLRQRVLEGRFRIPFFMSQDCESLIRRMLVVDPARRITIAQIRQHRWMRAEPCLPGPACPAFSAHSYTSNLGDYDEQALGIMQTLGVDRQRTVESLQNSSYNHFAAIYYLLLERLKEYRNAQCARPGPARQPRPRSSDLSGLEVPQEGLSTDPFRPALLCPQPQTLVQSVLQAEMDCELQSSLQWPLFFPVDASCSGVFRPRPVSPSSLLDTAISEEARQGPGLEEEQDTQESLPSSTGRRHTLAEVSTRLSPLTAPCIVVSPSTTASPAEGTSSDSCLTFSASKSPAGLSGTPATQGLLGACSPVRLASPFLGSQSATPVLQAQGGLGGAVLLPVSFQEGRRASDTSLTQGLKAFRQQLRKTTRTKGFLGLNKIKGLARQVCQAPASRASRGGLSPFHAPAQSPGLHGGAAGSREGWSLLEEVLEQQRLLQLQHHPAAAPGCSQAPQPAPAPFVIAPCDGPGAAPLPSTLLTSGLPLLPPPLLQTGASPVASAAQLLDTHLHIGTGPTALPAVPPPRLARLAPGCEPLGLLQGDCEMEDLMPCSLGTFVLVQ

Consider `CC(C)[C@H](NC(=O)c1cc(-c2cnn3cc(-c4ccc(OCCN5CCCCC5)cc4)cnc23)cs1)C(F)(F)F`, for which the results for the fold change (FC) in assay [1] and in assay [3] were 0.07 and 0.84, respectively. Besides, the inhibition in assay [2] worked out at 0%.
For `O=C(N[C@@H](C1CC1)C(F)(F)F)c1cc(-c2cnn3cc(-c4ccc(F)cc4)cnc23)cs1`, in assay [4], the inhibition turned out to be 6%.
Regarding `CNC(=O)c1ccccc1Oc1nc(Nc2cc(OC)c(OC)c(OC)c2)ncc1Br`, the fold change (FC) in assay [5] and in assay [7] was 0 each time. For the same compound, in assay [6], the inhibition is 10%.

For the origin of these results see ChEMBL document CHEMBL5653631, “A Potent and Selective ULK1 Inhibitor Suppresses Autophagy and Sensitizes Cancer Cells to Nutrient Stress” (iScience, 2018).
